# From ChEMBL document CHEMBL3991601, “The target landscape of clinical kinase drugs” (Science, 2017)
# Calls of active or inactive are those of the source. Rule as the data show it, for most assays here: actives have a measured Kd and inactives only a lower limit.
# What was measured:
# [1] = biological target: T1, Serine/threonine-protein kinase A-Raf (Homo sapiens, UniProt P10398)
# T1 sequence (P10398 whole entry): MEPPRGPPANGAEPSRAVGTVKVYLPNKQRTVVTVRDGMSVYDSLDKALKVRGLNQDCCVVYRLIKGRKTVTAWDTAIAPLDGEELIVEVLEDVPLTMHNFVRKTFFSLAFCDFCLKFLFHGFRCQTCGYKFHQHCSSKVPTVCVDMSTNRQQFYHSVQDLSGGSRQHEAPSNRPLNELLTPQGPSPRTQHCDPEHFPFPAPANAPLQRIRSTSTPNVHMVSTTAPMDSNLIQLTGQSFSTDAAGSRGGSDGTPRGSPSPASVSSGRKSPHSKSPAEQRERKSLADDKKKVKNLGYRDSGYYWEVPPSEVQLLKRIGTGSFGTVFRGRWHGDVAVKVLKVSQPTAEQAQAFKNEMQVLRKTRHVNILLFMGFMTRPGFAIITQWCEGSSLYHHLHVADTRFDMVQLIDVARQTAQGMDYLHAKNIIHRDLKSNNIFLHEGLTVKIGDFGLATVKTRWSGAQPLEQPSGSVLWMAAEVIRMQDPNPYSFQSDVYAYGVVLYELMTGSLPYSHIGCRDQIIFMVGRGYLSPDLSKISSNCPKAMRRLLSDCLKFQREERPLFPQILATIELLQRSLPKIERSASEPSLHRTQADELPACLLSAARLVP
# [2] = biological target: Citron Rho-interacting kinase (Homo sapiens, UniProt O14578)
# Chain of Citron Rho-interacting kinase (O14578 whole entry): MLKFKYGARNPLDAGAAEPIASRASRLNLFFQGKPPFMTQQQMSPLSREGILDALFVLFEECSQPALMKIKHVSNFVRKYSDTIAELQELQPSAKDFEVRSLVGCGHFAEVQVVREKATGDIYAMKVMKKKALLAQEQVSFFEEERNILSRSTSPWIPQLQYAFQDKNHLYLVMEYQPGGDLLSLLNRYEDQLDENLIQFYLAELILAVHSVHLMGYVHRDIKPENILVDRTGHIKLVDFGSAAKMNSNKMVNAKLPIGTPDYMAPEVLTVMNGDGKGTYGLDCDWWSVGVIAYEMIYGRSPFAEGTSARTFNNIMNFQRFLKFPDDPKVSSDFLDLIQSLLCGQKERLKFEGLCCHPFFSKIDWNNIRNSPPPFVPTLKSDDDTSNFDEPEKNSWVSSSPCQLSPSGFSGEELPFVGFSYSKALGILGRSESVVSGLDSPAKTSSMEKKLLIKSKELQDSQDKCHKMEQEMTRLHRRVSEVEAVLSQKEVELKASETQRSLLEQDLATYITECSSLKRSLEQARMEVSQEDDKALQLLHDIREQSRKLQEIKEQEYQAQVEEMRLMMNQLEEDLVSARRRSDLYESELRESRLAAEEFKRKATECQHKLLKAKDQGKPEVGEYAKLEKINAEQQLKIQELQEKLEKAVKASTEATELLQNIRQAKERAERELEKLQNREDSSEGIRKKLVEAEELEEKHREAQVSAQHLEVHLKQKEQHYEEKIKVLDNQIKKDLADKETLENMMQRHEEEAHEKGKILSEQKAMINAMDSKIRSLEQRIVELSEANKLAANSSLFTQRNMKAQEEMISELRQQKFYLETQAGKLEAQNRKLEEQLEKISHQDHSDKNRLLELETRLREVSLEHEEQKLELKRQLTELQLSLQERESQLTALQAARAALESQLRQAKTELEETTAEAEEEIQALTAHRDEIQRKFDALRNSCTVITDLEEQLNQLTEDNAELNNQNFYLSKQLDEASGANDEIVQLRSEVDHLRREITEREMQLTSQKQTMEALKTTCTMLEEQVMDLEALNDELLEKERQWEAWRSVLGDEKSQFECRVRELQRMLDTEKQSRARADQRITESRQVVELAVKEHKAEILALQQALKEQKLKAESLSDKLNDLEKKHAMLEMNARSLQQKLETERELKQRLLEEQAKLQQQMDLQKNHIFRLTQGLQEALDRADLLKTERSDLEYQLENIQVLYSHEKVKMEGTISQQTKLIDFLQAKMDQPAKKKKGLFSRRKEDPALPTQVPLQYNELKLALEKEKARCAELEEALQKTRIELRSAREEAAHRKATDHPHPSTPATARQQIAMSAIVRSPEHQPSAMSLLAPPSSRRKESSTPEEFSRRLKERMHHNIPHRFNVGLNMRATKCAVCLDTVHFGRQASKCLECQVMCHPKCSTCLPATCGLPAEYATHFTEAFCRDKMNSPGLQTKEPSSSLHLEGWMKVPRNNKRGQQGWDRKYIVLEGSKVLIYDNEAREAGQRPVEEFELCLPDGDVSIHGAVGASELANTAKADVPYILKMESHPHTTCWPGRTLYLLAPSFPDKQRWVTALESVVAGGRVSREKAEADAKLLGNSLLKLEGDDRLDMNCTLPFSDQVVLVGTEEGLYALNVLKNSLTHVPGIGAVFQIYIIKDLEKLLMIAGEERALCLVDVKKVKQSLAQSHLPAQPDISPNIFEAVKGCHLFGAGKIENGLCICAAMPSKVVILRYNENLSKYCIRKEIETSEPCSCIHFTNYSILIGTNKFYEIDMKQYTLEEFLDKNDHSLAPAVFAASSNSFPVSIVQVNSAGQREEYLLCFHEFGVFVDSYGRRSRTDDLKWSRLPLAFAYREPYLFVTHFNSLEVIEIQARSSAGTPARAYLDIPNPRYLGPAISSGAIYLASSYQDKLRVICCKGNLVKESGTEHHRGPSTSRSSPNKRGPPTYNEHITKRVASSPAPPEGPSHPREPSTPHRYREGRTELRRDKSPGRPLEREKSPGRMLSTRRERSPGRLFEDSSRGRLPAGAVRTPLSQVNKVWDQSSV
# [3] = biological target: Interleukin-1 receptor-associated kinase 1 (Homo sapiens, UniProt P51617)
# Chain of Interleukin-1 receptor-associated kinase 1 (P51617 whole entry): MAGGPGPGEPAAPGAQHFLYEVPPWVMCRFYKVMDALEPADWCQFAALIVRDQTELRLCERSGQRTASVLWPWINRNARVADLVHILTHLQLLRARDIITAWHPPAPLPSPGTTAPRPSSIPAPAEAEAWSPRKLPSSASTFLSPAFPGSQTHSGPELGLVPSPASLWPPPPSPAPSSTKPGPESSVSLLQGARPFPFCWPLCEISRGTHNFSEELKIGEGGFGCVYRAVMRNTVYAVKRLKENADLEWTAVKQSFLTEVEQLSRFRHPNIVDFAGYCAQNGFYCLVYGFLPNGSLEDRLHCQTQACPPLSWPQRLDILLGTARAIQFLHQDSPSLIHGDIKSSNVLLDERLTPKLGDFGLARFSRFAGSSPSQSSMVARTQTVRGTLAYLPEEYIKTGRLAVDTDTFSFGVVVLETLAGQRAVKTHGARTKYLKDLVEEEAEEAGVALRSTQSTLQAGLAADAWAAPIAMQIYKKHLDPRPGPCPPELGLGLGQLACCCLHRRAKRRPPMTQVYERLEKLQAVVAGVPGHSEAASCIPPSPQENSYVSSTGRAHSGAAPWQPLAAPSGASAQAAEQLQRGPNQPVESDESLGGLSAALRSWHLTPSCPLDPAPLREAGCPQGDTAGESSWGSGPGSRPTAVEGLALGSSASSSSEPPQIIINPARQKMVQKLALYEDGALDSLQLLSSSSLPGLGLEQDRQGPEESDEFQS
# [4] = biological target: Serine/threonine-protein kinase PAK 2 (Homo sapiens, UniProt Q13177)
# Chain of Serine/threonine-protein kinase PAK 2 (Q13177 whole entry): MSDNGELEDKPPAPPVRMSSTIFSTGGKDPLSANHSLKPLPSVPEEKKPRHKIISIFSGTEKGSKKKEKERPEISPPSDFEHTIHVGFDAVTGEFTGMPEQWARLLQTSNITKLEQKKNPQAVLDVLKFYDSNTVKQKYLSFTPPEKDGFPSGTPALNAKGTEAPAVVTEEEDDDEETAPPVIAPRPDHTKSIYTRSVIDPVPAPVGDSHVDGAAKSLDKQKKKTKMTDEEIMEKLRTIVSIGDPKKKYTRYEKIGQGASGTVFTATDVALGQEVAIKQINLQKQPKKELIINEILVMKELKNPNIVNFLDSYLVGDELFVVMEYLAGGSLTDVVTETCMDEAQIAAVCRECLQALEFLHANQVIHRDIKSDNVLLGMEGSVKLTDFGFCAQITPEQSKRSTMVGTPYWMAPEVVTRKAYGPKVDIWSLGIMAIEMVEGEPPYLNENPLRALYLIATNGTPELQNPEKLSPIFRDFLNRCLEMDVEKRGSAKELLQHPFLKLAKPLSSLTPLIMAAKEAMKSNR
# [5] = biological target: T2, Membrane-associated tyrosine- and threonine-specific cdc2-inhibitory kinase (Homo sapiens, UniProt Q99640)
# T2 sequence (Q99640 whole entry): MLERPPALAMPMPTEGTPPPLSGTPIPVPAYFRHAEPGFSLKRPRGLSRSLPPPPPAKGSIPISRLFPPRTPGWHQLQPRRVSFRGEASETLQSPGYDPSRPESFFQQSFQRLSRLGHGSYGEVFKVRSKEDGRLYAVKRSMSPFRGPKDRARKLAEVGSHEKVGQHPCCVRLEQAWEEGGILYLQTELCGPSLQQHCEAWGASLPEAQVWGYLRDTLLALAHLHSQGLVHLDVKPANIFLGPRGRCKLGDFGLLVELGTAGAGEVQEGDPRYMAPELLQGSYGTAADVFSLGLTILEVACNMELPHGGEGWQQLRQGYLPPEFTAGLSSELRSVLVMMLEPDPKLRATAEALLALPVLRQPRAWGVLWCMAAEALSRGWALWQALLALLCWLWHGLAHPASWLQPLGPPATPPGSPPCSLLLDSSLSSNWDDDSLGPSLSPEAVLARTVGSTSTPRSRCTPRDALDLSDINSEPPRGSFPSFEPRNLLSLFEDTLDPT
# [6] = biological target: T3, Serine/threonine-protein kinase D3 (Homo sapiens, UniProt O94806)
# T3 sequence (O94806 whole entry): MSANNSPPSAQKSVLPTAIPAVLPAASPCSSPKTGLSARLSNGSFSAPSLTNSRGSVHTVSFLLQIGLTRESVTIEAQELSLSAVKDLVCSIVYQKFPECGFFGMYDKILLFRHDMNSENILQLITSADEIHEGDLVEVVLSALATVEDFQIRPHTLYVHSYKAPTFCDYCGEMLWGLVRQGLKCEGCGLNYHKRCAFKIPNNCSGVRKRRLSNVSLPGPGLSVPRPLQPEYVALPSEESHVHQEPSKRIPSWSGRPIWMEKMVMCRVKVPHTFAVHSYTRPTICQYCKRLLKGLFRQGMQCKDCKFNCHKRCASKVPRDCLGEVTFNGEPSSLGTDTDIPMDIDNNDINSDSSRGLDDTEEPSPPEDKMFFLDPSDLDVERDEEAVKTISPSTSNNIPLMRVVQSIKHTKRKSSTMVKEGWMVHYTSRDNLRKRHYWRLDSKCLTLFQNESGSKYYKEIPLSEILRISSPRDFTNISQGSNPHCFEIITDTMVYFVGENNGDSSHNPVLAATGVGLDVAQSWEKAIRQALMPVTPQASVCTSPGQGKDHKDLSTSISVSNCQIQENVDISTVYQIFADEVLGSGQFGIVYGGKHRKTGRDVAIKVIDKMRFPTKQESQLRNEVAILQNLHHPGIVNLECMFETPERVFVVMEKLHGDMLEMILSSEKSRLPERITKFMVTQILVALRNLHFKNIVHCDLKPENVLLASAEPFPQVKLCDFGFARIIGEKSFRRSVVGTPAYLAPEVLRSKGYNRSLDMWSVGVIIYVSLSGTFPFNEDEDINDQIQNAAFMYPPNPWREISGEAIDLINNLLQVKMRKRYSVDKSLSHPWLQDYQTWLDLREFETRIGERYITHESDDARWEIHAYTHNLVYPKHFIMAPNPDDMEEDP
# [7] = biological target: T4, TGF-beta receptor type-1 (Homo sapiens, UniProt P36897)
# T4 sequence (P36897 whole entry): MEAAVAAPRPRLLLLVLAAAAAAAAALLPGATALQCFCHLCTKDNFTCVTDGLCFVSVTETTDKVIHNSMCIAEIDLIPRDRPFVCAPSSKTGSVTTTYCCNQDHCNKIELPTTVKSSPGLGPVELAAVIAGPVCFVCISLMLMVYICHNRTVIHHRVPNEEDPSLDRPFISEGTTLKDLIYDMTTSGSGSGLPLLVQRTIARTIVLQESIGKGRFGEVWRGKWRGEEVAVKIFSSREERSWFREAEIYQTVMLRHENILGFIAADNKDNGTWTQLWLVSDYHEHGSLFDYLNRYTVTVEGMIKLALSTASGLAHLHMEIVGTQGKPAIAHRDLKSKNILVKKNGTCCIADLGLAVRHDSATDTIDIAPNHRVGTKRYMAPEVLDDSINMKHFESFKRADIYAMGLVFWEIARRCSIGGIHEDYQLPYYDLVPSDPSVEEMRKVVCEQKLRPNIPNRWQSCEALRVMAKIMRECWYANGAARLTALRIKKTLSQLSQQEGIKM
# [8] = biological target: Mitogen-activated protein kinase kinase kinase 20 (Homo sapiens, UniProt Q9NYL2)
# Chain of Mitogen-activated protein kinase kinase kinase 20 (Q9NYL2 whole entry): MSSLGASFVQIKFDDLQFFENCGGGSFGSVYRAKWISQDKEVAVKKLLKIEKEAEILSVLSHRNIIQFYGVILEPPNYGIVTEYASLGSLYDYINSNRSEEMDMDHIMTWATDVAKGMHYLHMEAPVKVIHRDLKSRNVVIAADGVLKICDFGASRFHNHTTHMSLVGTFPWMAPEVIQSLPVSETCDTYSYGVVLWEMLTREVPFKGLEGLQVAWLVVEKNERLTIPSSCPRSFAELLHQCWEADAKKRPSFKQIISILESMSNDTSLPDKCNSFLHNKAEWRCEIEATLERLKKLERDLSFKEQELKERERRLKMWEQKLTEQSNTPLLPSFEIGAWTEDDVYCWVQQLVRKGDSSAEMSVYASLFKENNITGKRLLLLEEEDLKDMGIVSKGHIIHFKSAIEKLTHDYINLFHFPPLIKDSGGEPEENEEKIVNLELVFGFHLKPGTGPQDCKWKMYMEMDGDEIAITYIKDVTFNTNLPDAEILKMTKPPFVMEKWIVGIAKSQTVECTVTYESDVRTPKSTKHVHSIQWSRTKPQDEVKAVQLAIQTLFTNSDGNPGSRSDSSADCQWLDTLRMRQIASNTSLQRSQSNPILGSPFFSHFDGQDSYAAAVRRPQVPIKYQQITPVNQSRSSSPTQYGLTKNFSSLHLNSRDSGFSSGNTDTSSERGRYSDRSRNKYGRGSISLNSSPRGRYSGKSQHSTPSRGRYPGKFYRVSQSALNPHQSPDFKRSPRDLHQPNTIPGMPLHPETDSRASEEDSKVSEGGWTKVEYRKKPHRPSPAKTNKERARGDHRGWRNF
# Also: in the data inactive means no Kd found up to 30 µM.
SMILES,Kd [1],Kd [2],Kd [3],Kd [4],Kd [5],Kd [6],Kd [7],Kd [8]
COc1cc2ncnc3c2cc1OCCCCCN(C)Cc1ccc(Br)cc1N3 [JNJ-26483327],> 30 µM (inactive),> 30 µM (inactive),> 30 µM (inactive),> 30 µM (inactive),> 30 µM (inactive),> 30 µM (inactive),> 30 µM (inactive),> 30 µM (inactive)
COc1ccc2c(OCc3nnc4ccc(-c5ccccc5)nn34)ccnc2c1 [AMG-208],> 30 µM (inactive),> 30 µM (inactive),> 30 µM (inactive),> 30 µM (inactive),> 30 µM (inactive),> 30 µM (inactive),> 30 µM (inactive),> 30 µM (inactive)
C#Cc1cccc(Nc2ncnc3cc4c(cc23)OCCOCCOCCO4)c1 [ICOTINIB],> 30 µM (inactive),> 30 µM (inactive),> 30 µM (inactive),> 30 µM (inactive),> 30 µM (inactive),> 30 µM (inactive),> 30 µM (inactive),> 30 µM (inactive)

# Further lines, results first:
Kd [1],Kd [2],Kd [3],Kd [4],Kd [5],Kd [6],Kd [7],Kd [8],SMILES
> 30 µM (inactive),> 30 µM (inactive),> 30 µM (inactive),> 30 µM (inactive),> 30 µM (inactive),> 30 µM (inactive),> 30 µM (inactive),> 30 µM (inactive),O=C(O)c1ccc2c(c1)nc(Nc1cccc(Cl)c1)c1ccncc12 [SILMITASERTIB]
> 30 µM (inactive),> 30 µM (inactive),> 30 µM (inactive),> 30 µM (inactive),> 30 µM (inactive),> 30 µM (inactive),> 30 µM (inactive),> 30 µM (inactive),O=C(NC[C@H](O)CO)c1ccncc1Nc1ccc(I)cc1F [PIMASERTIB]
